Assay results: publication PMC3206494, “Discovery of potent, novel, non-toxic anti-malarial compounds via quantum modelling, virtual screening and in vitro experimental validation” (Malaria Journal, 2011)
Like-named read-outs stand apart in the source and are kept apart here.

Tests used:
P. falciparum = test: In vitro anti-malarial activity, [3H]-hypoxanthine incorporation assay; assay type: cell-based; conditions: Plasmodium falciparum
Description: The in vitro anti-malarial activity was measured using the [3H]-hypoxanthine incorporation assay with various strains of P. falciparum (Roche). Results were expressed as the concentration corresponding to 50% inhibition. The anti-malarial assays were performed at the Swiss Tropical Institute, Basel, Switzerland.

mammalian cytotoxicity = test: Toxicity assay, colorimetric MTT assay (mammalian cytotoxicity); assay type: cell-based; conditions: data from two independent assays
Description: Toxicity was determined by using the colorimetric 3-(4,5-dimethylthiazol-2-yl)-2,5-diphenyltetrazoliumbromide (MTT) assay. The toxicity assays were performed at the Swiss Tropical Institute, Basel, Switzerland.

[1] = Solubility in DMSO (footnote to Table 2); assay type: physicochemical; parameters: key: *: Not fully soluble in DMSO; conditions: footnote mark on the anti-malarial activity value
From the text: Table 2 Summary of anti-malarial activity and cytotoxicity | column: Average Anti-malarial Activity**(ng/ml)

[2] = P. falciparum, in vitro, data from two independent assays, read-out: Average Anti-malarial Activity (concentration corresponding to 50% inhibition)
[3] = P. falciparum, in vitro, read-out: IC50 (anti-malarial activity)

SMILES	IC50 (P. falciparum; [2])	IC50 (P. falciparum; [3])	Average Cytotoxicity (mammalian cytotoxicity)	further results
Cc1ccc2c(c1)N(CCCC(=O)NCCCN1CCC(Cc3ccccc3)CC1)C(=O)CO2 [GR-M006]	1.63 µg/mL	3.52 µM	–	–
Cc1ccc(Cn2cc(CCC(=O)NCCCN3CC(C)CC(C)C3)c3ccccc32)cc1 (stereo not shown) [GR-M007]	0.446 µg/mL	0.999 µM	10420 ng/mL	–
CC(C)(C)CC(C)(C)Cc1ccc(OCCOCC[N+](C)(C)Cc2ccccc2)cc1 [GR-M011]	0.086 µg/mL	0.185 µM	3250 ng/mL	–
CC(NC(=O)CN1CCCN(CC(=O)NC(C)(C)C)CC1)c1ccc2c(c1)CCCC2 (stereo not shown) [GR-M002]	5.38 µg/mL	12.5 µM	–	–
COc1cc([C@@H]2c3cc4c(cc3[C@H](O)[C@H]3COC(=O)[C@H]23)OCO4)cc(OC)c1OC [Podophyllotoxin, reference compound]	–	–	9.5 ng/mL	–
O=CN1CCN(CC(O)COc2ccc(OCC(O)CN3CCN(C=O)CC3)cc2)CC1 (stereo not shown) [GR-M003]	–	> 20 µM	–	–
Cc1cccc[n+]1CCCCCCCCCC[n+]1ccccc1C [GR-M009]	0.013 µg/mL	0.027 µM	–	–
CC(C)(C)c1cnnn1-c1ccc(C=Cc2ccc(C=Cc3ccc4ccccc4n3)cc2)cc1 [GR-M001]	–	> 20 µM	–	Solubility in DMSO [1]: *
Cc1cccc(C)c1OCCOCC(O)CN1CCN(Cc2ccc3c(c2)OCO3)CC1 (stereo not shown) [GR-M005]	9.74 µg/mL	18.9 µM	–	–
CC1=C(CCC(C)N(C)Cc2ccc(OCCCN3CCCC3)cc2)C(C)(C)CCC1 (stereo not shown) [GR-M010]	0.172 µg/mL	0.332 µM	4860 ng/mL	–
Cc1ccc(C)c(NCC(O)COc2ccc(OCC(O)CNc3cc(C)ccc3C)cc2)c1 (stereo not shown) [GR-M004]	4.78 µg/mL	10.3 µM	–	–
CCN(CC)CCCC(C)Nc1ccnc2cc(Cl)ccc12 (stereo not shown) [chloroquine, reference compound]	–	–	–	IC50 (P. falciparum; read-out: Average Anti-malarial Activity (concentration corresponding to 50% inhibition)): 0.0042 µg/mL; IC50 (P. falciparum; read-out: IC50 (anti-malarial activity)): 0.013 µM
